The values below come from patent US9765108B2 (SHILPA MEDICARE LIMITED, priority 2012, dated 2017).

Read-outs that look alike come from different tables or passages of the source.

For data set [1] the following is noted: cited from earlier work.
Data set [2] is described as follows: Water content of lyophilized formulation / crystalline form. As to conditions: neat crystalline form as obtained after lyophilization, no bulking agent. In kind it is physicochemical. As to the method:
The secondary drying phase is the final segment of the lyophilization cycle, where residual moisture is removed from a formulation's interstitial matrix by desorption with elevated temperatures and/or reduced pressures. The final moisture content of a lyophilized formulation, which can be measured by Karl Fischer or other methods, is important because if the solid cake contains too much residual moisture, the stability of the active can be compromised.
Chemical stability is tested for both example 1 & it's corresponding placebo formulation by storing the lyophilized vials under various conditions: 25° C. and 60% relative humidity (“A”); 40° C. and 75% relative humidity (“B”); and 60° (“C”); for one month. Impurity analyses are done before storage (“Initial”) and after storage, and are expressed as percentages of the label 5-azacytidine content.

As for `Nc1ncn([C@@H]2O[C@H](CO)[C@@H](O)[C@H]2O)c(=O)n1` [5-azacytidine, 4-amino-1-β-D-ribofuranosyl-1,3,5-triazin-2(1H)-one], the Solubility result is listed as “sparingly soluble” in data set [1] (5% Tween 80 in water); “sparingly soluble” in data set [1] (5% dextrose in water); “sparingly soluble” in data set [1] (N-methylpyrrolidone); “insoluble” in data set [1] (acetone); “soluble” in data set [1] (dimethylsulfoxide (DMSO)); “slightly soluble” in data set [1] (ethanol and water (50:50)). The Solubility entry is given as “insoluble” in data set [1] (ethanol); “insoluble” in data set [1] (methyl ethyl ketone); “sparingly soluble” in data set [1] (normal saline); “slightly soluble” in data set [1] (polyethylene glycol); “slightly soluble” in data set [1] (propylene glycol); “sparingly soluble” in data set [1] (water saturated octanol). For the same compound, the Solubility result in data set [1] (water) is given as “sparingly soluble”.

Consider `Nc1ncn([C@@H]2O[C@H](CO)[C@@H](O)[C@H]2O)c(=O)n1` [Crystalline 5-Azacytidine Form-SA-1, 5-Azacytidine], for which, in data set [2], the Water content was found to be 0.6 % w/w.

As to `Nc1ncn([C@@H]2O[C@H](CO)[C@@H](O)[C@H]2O)c(=O)n1` [Crystalline 5-Azacytidine Form-SA-2, 5-Azacytidine], the Water content in data set [2] came to 0.7 % w/w.
